Entries after “also recorded” stand apart in the source; their conditions may differ.
Columns and labels:
HEK293 cells = assay: PGE of HPRT with Cpf1 electroporation in non-pluripotent cells; format: cell-based, human; conditions: 20 μM NU7026, 0.01 μM TSA, 0.5 μM MLN4924, 5 μM NSC 15520
Experimental: (§1) Stem cell lines cultured for this project included human 409-B2 hiPSC ([…], Riken BioResource Center) and SC102A1 hiPSC ([…], BioCat GmbH), chimpanzee SandraA ciPSC (female, Mora-Bermúdez et al. 201637), as well as H9 hESC ([…], WiCell Research Institute, Ethics permit AZ 3.04.02/0118). Stem cell lines were grown on Matrigel Matrix (Corning, 35248), and mTeSR1 (StemCell Technologies, 05851) with mTeSR1 supplement (StemCell Technologies, 05852) was used as culture media. Non-pluripotent cell types and their respective media used were: HEK293 (ECACC, 85120602) with DMEM/F-12 (Gibco, 31330-038) supplemented with 10% FBS (SIGMA, F2442) and 1% NEAA (SIGMA, M7145); K562 (ECACC, 89121407) with IMDM (ThermoFisher, 12440053) supplemented with 10% FBS; CD4^+ T (HemaCare, PB04C-1) with RPMI 1640 (ThermoFisher, 11875-093) supplemented with 10% FBS, and activated with Dynabeads Human T-Activator (CD3/CD28) (ThermoFisher, 11131D); CD34^+ progenitor (HemaCare, M34C-1) with StemSpan SFEM (Stemcell, 09600) supplemented with StemSpan CC110 (StemCell, 02697); and HEKa (Gibco, C0055C) with Medium 154 (ThermoFisher, M154500) and Human Keratinocyte Growth Supplement (ThermoFisher, S0015). Cells were grown at 37° C. in a humidified incubator gassed with 5% CO2. Media was replaced every day for stem cells and every second day for non-pluripotent cell lines. Cell cultures were maintained 4-6 days until ˜80% confluency, and subcultured at a 1:6 to 1:10 dilution. Adherent cells were dissociated using EDTA (VWR, 437012C). The media was supplemented with 10 μM Rho-associated protein kinase (ROCK) inhibitor Y-27632 (Calbiochem, 688000) after cell splitting for one day in order to increase cell survival.
(§2) The recombinant A.s. Cpf1 and S.p. Cas9 protein and electroporation enhancer was ordered from IDT (Coralville, USA) and nucleofection was done using the manufacturer's protocol, except for the following alterations. Nucleofection was done using the B-16 program (or U-14 for CD4^+ T cells) of the Nucleofector 2b Device (Lonza) in cuvettes for 100 μl Human Stem Cell nucleofection buffer (Lonza, VVPH-5022), or Human T Cell nucleofection buffer for CD4^+ T cells (Lonza, VPA-1002), and Human CD34 Cell nucleofection buffer for CD34^+ progenitor cells (Lonza, VPA-1003), containing 1 million cells of the respective lines, 78 pmol electroporation enhancer, 160 pmol of each gRNA (crRNA/tracR duplex for Cas9 and crRNA for Cpf1) (320 pmol for double nicking with both gRNAs for one gene), 200 pmol ssODN donor, 252 pmol CRISPR protein. For multiplexing, only gRNAs and single stranded DNA donors were electroporated, since a Cas9n expressing iCRISPR-Cas9n hiPSC line was used. Cells were counted using the Countess Automated Cell Counter (Invitrogen). […]

K562 cells = assay: as above; format: cell-based, human; conditions: 20 μM NU7026, 0.01 μM TSA, 0.5 μM MLN4924, 5 μM NSC 15520
Experimental: as §1, §2

[1] = Solubility of stock in DMSO; format: physicochemical; conditions: 10 mM stock in DMSO
Experimental: Commercially available small molecules used in this study were NU7026 (SIGMA, […]), TSA (SIGMA, […]), MLN4924 (Adooq BioScience, A11260), NSC 19630 (Calbiochem, 681647), NSC 15520 (ChemBridge, 6048069), AICAR (SIGMA, A9978), RS-1 (Calbiochem, 553510), Resveratrol (Selleckchem, S1396), SCR7 (XcessBio, M60082-2s), L755507 (TOCRIS, 2197), B02 (SIGMA, SML0364) and STL127685 (Vitas-M). STL127685 is a 4-fluorophenyl analog of the non-commercially available STL127705. Stocks of 15 mM (or 10 mM for NU7026) were made using dimethylsulfoxide (DMSO)(Thermo Scientific, D12345). […] Suitable working solutions for different concentrations were made so that addition of each small molecule accounts for a final concentration of 0.08% (or 0.2% for NU7026) DMSO in the media. Addition of all small molecules would lead to a final concentration of 0.7% DMSO.

| SMILES | effect on PGE efficiency (HEK293 cells) | effect on PGE efficiency (K562 cells) | solubility [1] |
| --- | --- | --- | --- |
| NS(=O)(=O)OC[C@@H]1C[C@@H](n2ccc3c(N[C@H]4CCc5ccccc54)ncnc32)C[C@@H]1O [MLN4924, Pevonedistat] | clear disruptive effect | clear disruptive effect |  |
| O=c1cc(N2CCOCC2)oc2c1ccc1ccccc12 [NU7026] | strongly increases; also recorded: increases | strongly increases; also recorded: increases | limiting factor |
